Reference: PMC10945555, “Improving Activity of New Arylurea Agents against Multidrug-Resistant and Biofilm-Producing Staphylococcus epidermidis” (ACS Medicinal Chemistry Letters, 2024)

Test system: Staphylococcus epidermidis clinical strain no. 23
Assay: Cell membrane potential, DiOC2 flow cytometry
Assay type: cell-based
Details: 4 × MIC, within 15 min; MSSE, S. epidermidis clinical strain no. 23, S. aureus Newman
Excerpt: 23, and S. aureus Newman (reference strain without known antibiotic resistance determinants). Bacterial strains were stained with 3,3′-diethyloxacarbocyanine iodide (DiOC2) and then treated with the tested compound 25, with carbonyl cyanide 3-chlorophenylhydrazone (CCCP) used as a positive control. Daptomycin was used as a reference compound that causes depolarization of bacterial cell membranes.[22]
(reduction of navy blue resazurin to pink resorufin in the presence of metabolically active cells) compared to the negative (sterile medium without bacteria and compounds) and positive control (medium with bacteria).9 The minimal biofilm eradication concentration value was analyzed using a high throughput screening the MBEC Assay® Kit (Innovotech, Canada), formerly the Calgary Biofilm Device, according to the manufacturer's insert.10 […]
determining MBC (Minimal Bactericidal Concentration) values. […] Then, the value of the MBC/MIC ratio was calculated to assess its bactericidal or bacteriostatic activity. […]
using the BacLight™ Bacterial Membrane Potential Kit (Molecular Probes, Invitrogen, Carlsbad, CA, USA).15 Analysis of the cells was tested in an LSR II flow cytometer (BD Biosciences Immunocytometry Systems, San Jose, CA, USA) equipped with blue, red and violet lasers, using 488 nm excitation for green (530/30 BP filter, 505 LP) and red (610/20 BP, 600 LP) fluorescence. […]

In the case of O=C(Nc1cccc(Cl)c1)NC1CCN(CCC(Oc2ccc(C(F)(F)F)cc2)c2cccs2)CC1 (stereo not shown) [Compound 25], the membrane depolarization is reported as “depolarization in nearly all bacterial cells”.
